{
  "source": "patent US20110152267A1",
  "about": "“Compositions and Methods for Treating Hyperproliferative Disorders” (Texas Tech University System, priority 2009, published 2011)",
  "assay_type_in_all_cases": "cell-based, human",
  "key": {"[1]": {"system": "U-266 Multiple Myeloma cell line", "assay": "DIMSCAN cytotoxicity, fenretinide + L-threo-sphinganines 3:1 (Example B3)", "conditions": "96 h", "experimental": "(§1) Cytotoxicity Assay—Once again, cytotoxicity is determined using the DIMSCAN assay system (R. Proffitt et al., Cytometry 24, 204-213 (1996); T. Frgala et al., Mol Cancer Ther. 6:886-97, 2007). The system employs digital imaging microscopy to quantify viable cells, which selectively accumulate fluorescein diacetate to become brightly fluorescent. The system is capable of measuring cytotoxicity over a 4-5 log dynamic range by quenching the residual fluorescence of dead and dying cells with eosin Y and quantifying the total fluorescence of viable cells using digital thresholding. Measured fluorescence is directly proportionate to the number of viable cells. A comparison of the total fluorescence of a drug-treated cell population to the fluorescence of a similar number of untreated cells yields a survival fraction. In brief, 2000 to 10,000 cells/well (depending on size and growth rates) are replicate plated into 60 wells of a 96-well tissue culture plate in 0.1 mL of whole medium and allowed to attach overnight. Drug(s) are then added in 0.05 mL of whole medium to the final concentrations indicated. Drugs (fenretinide, and various chain length L-threo-sphinganines) were tested both as single agents and in a 3:1 ratio of fenretinide:sphinganine. C18-L-threo-sphinganine, or “safingol,” was also tested and results shown for reference. There are 12 wells treated per drug concentration. Twelve wells receive drug vehicle-only to the appropriate final concentration and serve as controls for the plate. Cells are incubated for 96 hours at 37° C. in ambient air with 5% CO2. Fluorescein diacetate is then added to each well in 0.05 mL media to a final concentration of 8 microgram/mL. Cells are incubated for a further 15 minutes at 37° C. and 0.03 mL of 0.5% eosin Y is added to each well. Total fluorescence of viable cells is then measured by digital imaging microscopy. Results were graphed as the ratio of the fluoresecence of drug-treated wells to non-drug treated control wells (i.e., Survival Fraction). All tests were performed at least twice. Representative results are shown.\n(§2) The Combination Index (CI) is a term to describe mathematical modeling of the pharmacologic effects on cytotoxicity (cell death) of two drugs in combination based. Cytotoxic “synergy” is defined as a cell death affect which is greater than would be expected from a simple product of the single agent cytotoxicities alone (i.e. an “additive” effect). By Chou-Talalay analysis, a CI<0.9 on a Fraction Affected (“Fa”, i.e. fraction of cells killed) indicates synergy, with smaller numbers indicating greater synergy; a CI of 0.9-1.1 signifies an additive or near-additive effect; and a CI>1.1 means the drug combination is antagonistic.\nFenretinide and L-threo-sphinganines tested in human Multiple Myeloma (a cancer of the blood and bone marrow) cell line, U-266."}, "[2]": {"system": "A-172 Glioblastoma multiforme cell line", "assay": "DIMSCAN cytotoxicity, fenretinide + L-threo-sphinganines 3:1 (Example B4)", "set-up": "key to CI (Combination Index): Chou-Talalay CI: <0.9 synergy, 0.9-1.1 additive, >1.1 antagonism", "conditions": "96 h", "experimental": "as §1, §2\nFenretinide and L-threo-sphinganines tested in human Glioblastoma multiforme (brain cancer) cell line, A-172."}, "[3]": {"system": "T98G Glioblastoma multiforme cell line", "assay": "DIMSCAN cytotoxicity, fenretinide + L-threo-sphinganines 3:1 (Example B6)", "conditions": "96 h", "experimental": "as §1, §2\nFenretinide and L-threo-sphinganines tested in human Glioblastoma multiforme (brain cancer) cell line, T98G."}, "[4]": {"system": "SJ-G2 Glioblastoma cell line", "assay": "DIMSCAN cytotoxicity, fenretinide + L-threo-sphinganines 3:1 (Example B8)", "conditions": "96 h", "experimental": "as §1, §2\nFenretinide and L-threo-sphinganines tested in human Glioblastoma (brain cancer) cell line, SJ-G2."}, "[5]": {"system": "PANC-1 pancreatic adenocarcinoma cell line", "assay": "DIMSCAN cytotoxicity, fenretinide + L-threo-sphinganines 3:1 (Example B18)", "experimental": "as §1, §2\nFenretinide and L-threo-sphinganines tested in human pancreatic adenocarcinoma (pancreas cancer) cell line, PANC-1."}, "[6]": {"system": "HT-29 colorectal adenocarcinoma cell line", "assay": "DIMSCAN cytotoxicity, fenretinide + L-threo-sphinganines 3:1 (Example B10)", "conditions": "96 h", "experimental": "as §1, §2\nFenretinide and L-threo-sphinganines tested in human colorectal adenocarcinoma (colon cancer) cell line, HT-29."}, "[7]": {"system": "SJ-GBM2 Glioblastoma multiforme cell line", "assay": "DIMSCAN cytotoxicity, fenretinide + L-threo-sphinganines 3:1 (Example B7)", "set-up": "key to CI (Combination Index): Chou-Talalay CI: <0.9 synergy, 0.9-1.1 additive, >1.1 antagonism", "conditions": "96 h", "experimental": "as §1, §2\nFenretinide and L-threo-sphinganines tested in human Glioblastoma multiforme (brain cancer) cell line, SJ-GBM2."}, "[8]": {"system": "OVCAR-8 ovarian adenocarcinoma cell line", "assay": "DIMSCAN cytotoxicity, fenretinide + L-threo-sphinganines 3:1 (Example B15)", "set-up": "key to CI (Combination Index): Chou-Talalay CI: <0.9 synergy, 0.9-1.1 additive, >1.1 antagonism", "conditions": "96 h", "experimental": "as §1, §2\nFenretinide and L-threo-sphinganines tested in human ovarian adenocarcinoma (ovarian cancer) cell line, OVCAR-8."}, "[9]": {"conditions": "4-HPR 1.5 μM + L-threo-sphinganine 0.5 μM"}, "[10]": {"conditions": "4-HPR 3 μM + L-threo-sphinganine 1 μM"}, "[11]": {"conditions": "4-HPR 6 μM + L-threo-sphinganine 2 μM"}, "[12]": {"conditions": "4-HPR 9 μM + L-threo-sphinganine 3 μM"}},
  "data": [
    {"smiles": "CCCCCCCCC[C@H](O)[C@@H](N)CO", "note": "[C12]", "values": [
      {"measurement": "CI (Combination Index)", "setting": "[1]; [9]", "result": 0.8},
      {"measurement": "Fa (fraction affected)", "setting": "[1]; [9]", "result": 0.176},
      {"measurement": "CI (Combination Index)", "setting": "[1]; [10]", "result": 0.9},
      {"measurement": "Fa (fraction affected)", "setting": "[1]; [10]", "result": 0.326},
      {"measurement": "CI (Combination Index)", "setting": "[1]; [11]", "result": 0.9},
      {"measurement": "Fa (fraction affected)", "setting": "[1]; [11]", "result": 0.697},
      {"measurement": "CI (Combination Index)", "setting": "[1]; [12]", "result": 1.2},
      {"measurement": "Fa (fraction affected)", "setting": "[1]; [12]", "result": 0.748},
      {"measurement": "CI (Combination Index)", "setting": "[2]; [9]", "result": 6.1},
      {"measurement": "Fa (fraction affected)", "setting": "[2]; [9]", "result": 0.024},
      {"measurement": "CI (Combination Index)", "setting": "[2]; [10]", "result": 4.4},
      {"measurement": "Fa (fraction affected)", "setting": "[2]; [10]", "result": 0.065},
      {"measurement": "CI (Combination Index)", "setting": "[2]; [11]", "result": 0.4},
      {"measurement": "Fa (fraction affected)", "setting": "[2]; [11]", "result": 0.849},
      {"measurement": "CI (Combination Index)", "setting": "[2]; [12]", "result": 0.2},
      {"measurement": "Fa (fraction affected)", "setting": "[2]; [12]", "result": 0.981},
      {"measurement": "CI (Combination Index)", "setting": "[3]; [9]", "result": 2.8},
      {"measurement": "Fa (fraction affected)", "setting": "[3]; [9]", "result": 0.306},
      {"measurement": "CI (Combination Index)", "setting": "[3]; [10]", "result": 3.6},
      {"measurement": "Fa (fraction affected)", "setting": "[3]; [10]", "result": 0.408},
      {"measurement": "CI (Combination Index)", "setting": "[3]; [11]", "result": 1.5},
      {"measurement": "Fa (fraction affected)", "setting": "[3]; [11]", "result": 0.781},
      {"measurement": "CI (Combination Index)", "setting": "[3]; [12]", "result": 0.2},
      {"measurement": "Fa (fraction affected)", "setting": "[3]; [12]", "result": 0.981},
      {"measurement": "CI (Combination Index)", "setting": "[4]; [9]", "result": 0.8},
      {"measurement": "Fa (fraction affected)", "setting": "[4]; [9]", "result": 0.199},
      {"measurement": "CI (Combination Index)", "setting": "[4]; [10]", "result": 0.7},
      {"measurement": "Fa (fraction affected)", "setting": "[4]; [10]", "result": 0.530},
      {"measurement": "CI (Combination Index)", "setting": "[4]; [11]", "result": 0.8},
      {"measurement": "Fa (fraction affected)", "setting": "[4]; [11]", "result": 0.764},
      {"measurement": "CI (Combination Index)", "setting": "[4]; [12]", "result": 0.6},
      {"measurement": "Fa (fraction affected)", "setting": "[4]; [12]", "result": 0.931},
      {"measurement": "CI", "setting": "[5]; [9]", "result": 0.9},
      {"measurement": "Fa", "setting": "[5]; [9]", "result": 0.232},
      {"measurement": "CI", "setting": "[5]; [10]", "result": 3.1},
      {"measurement": "Fa", "setting": "[5]; [10]", "result": 0.119},
      {"measurement": "CI", "setting": "[5]; [11]", "result": 0.7},
      {"measurement": "Fa", "setting": "[5]; [11]", "result": 0.757},
      {"measurement": "CI", "setting": "[5]; [12]", "result": 0.2},
      {"measurement": "Fa", "setting": "[5]; [12]", "result": 0.977},
      {"measurement": "CI (Combination Index)", "setting": "[6]; [9]", "result": 1.0},
      {"measurement": "Fa (fraction affected)", "setting": "[6]; [9]", "result": 0.217},
      {"measurement": "CI (Combination Index)", "setting": "[6]; [10]", "result": 1.2},
      {"measurement": "Fa (fraction affected)", "setting": "[6]; [10]", "result": 0.642},
      {"measurement": "CI (Combination Index)", "setting": "[6]; [11]", "result": 1.3},
      {"measurement": "Fa (fraction affected)", "setting": "[6]; [11]", "result": 0.951},
      {"measurement": "CI (Combination Index)", "setting": "[6]; [12]", "result": 1.6},
      {"measurement": "Fa (fraction affected)", "setting": "[6]; [12]", "result": 0.975},
      {"measurement": "CI (Combination Index)", "setting": "[7]; [9]", "result": 0.5},
      {"measurement": "Fa (fraction affected)", "setting": "[7]; [9]", "result": 0.133},
      {"measurement": "CI (Combination Index)", "setting": "[7]; [10]", "result": 0.7},
      {"measurement": "Fa (fraction affected)", "setting": "[7]; [10]", "result": 0.271},
      {"measurement": "CI (Combination Index)", "setting": "[7]; [11]", "result": 0.7},
      {"measurement": "Fa (fraction affected)", "setting": "[7]; [11]", "result": 0.930},
      {"measurement": "CI (Combination Index)", "setting": "[7]; [12]", "result": 0.9},
      {"measurement": "Fa (fraction affected)", "setting": "[7]; [12]", "result": 0.968},
      {"measurement": "CI (Combination Index)", "setting": "[8]; [9]", "result": 0.3},
      {"measurement": "Fa (fraction affected)", "setting": "[8]; [9]", "result": 0.382},
      {"measurement": "CI (Combination Index)", "setting": "[8]; [10]", "result": 0.5},
      {"measurement": "Fa (fraction affected)", "setting": "[8]; [10]", "result": 0.445},
      {"measurement": "CI (Combination Index)", "setting": "[8]; [11]", "result": 0.6},
      {"measurement": "Fa (fraction affected)", "setting": "[8]; [11]", "result": 0.634},
      {"measurement": "CI (Combination Index)", "setting": "[8]; [12]", "result": 0.8},
      {"measurement": "Fa (fraction affected)", "setting": "[8]; [12]", "result": 0.704}
    ]}
  ]
}
